{"source": "patent US8293243B2", "about": "(priority 2004, dated 2012)", "origin": "cited, not measured here", "settings": "in vivo; cited from earlier work", "note": "*1 amine or outer side, *2 acyl side, *3 side chain or, on linkers, in order; H or OH if unused. Where a SMILES comes first, the peptide text is derived from it. Bridges are numbered along the chain shown (N, C = ends). Roman numbers before positions name the chains, in order. [ ]: non-standard residue; d: D form. Actinocin(9to1) = Cc1c2oc3c(C)ccc(C(=O)[*:1])c3nc-2c(C(=O)[*:2])c(N)c1=O; NMeV = CN[C@H](C(=O)O)C(C)C; Sar = CNCC(=O)O", "data": [{"smiles": "Cc1c2oc3c(C)ccc(C(=O)N[C@@H]4C(=O)N[C@H](C(C)C)C(=O)N5CCC[C@H]5C(=O)N(C)CC(=O)N(C)[C@@H](C(C)C)C(=O)O[C@@H]4C)c3nc-2c(C(=O)N[C@@H]2C(=O)N[C@H](C(C)C)C(=O)N3CCC[C@H]3C(=O)N(C)CC(=O)N(C)[C@@H](C(C)C)C(=O)O[C@@H]2C)c(N)c1=O", "note": "[Actinomycin D] (I: T[dV]P[Sar][NMeV] / II: T[dV]P[Sar][NMeV]; ester I:1-I:C, II:1-II:C; linker I:N-II:N via Actinocin(9to1))", "values": [{"measurement": "passage of the blood-brain barrier", "value": "does not pass the blood-brain barrier"}]}]}
